{"source": "patent US9006205B2", "about": "“Antisense oligonucleotides against neutral sphingomyelinase and neutral sphingomyelinase inhibitor GW4869 for degenerative neurological disorders” (Rush University Medical Center, priority 2011, dated 2015)", "key": {"N-SMase [1]": {"target": "T1, N-SMase (Homo sapiens, UniProt Q9NY59)", "T1 construct": "endogenous in cells; host or cells: primary human neurons", "T1 sequence (Q9NY59 1-655)": "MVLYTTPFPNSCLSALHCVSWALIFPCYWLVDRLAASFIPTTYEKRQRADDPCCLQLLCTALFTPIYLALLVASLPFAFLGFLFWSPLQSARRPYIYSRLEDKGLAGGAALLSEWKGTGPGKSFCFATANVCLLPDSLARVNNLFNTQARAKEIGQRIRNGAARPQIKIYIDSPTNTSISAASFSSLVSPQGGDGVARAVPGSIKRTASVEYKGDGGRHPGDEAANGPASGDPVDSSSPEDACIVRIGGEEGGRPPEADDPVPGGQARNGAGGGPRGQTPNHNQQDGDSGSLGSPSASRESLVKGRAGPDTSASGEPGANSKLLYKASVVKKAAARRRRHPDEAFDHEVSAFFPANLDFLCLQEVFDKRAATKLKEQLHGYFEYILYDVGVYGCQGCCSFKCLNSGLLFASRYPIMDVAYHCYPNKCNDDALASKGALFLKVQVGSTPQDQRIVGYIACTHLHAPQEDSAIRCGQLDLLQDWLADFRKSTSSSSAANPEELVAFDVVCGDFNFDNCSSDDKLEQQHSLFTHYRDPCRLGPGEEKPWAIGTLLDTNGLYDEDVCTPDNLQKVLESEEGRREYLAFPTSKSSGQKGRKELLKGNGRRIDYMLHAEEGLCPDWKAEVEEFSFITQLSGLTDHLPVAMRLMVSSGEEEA", "assay": "Assay of N-SMase activity in primary human neurons", "format": "cell-based", "details": "activated astroglia-insulted human neurons, chemical inhibitors", "protocol": "(§1) Activities of SMase(s) were assayed as described by. Briefly, after treatment, the cells were washed with PBS, harvested in PBS, divided into two halves, and centrifuged. The fraction for N-SMase was resuspended in buffer A (100 mM Tris-HCl, pH 7.4, 0.1% Triton X-100, 1 mM EDTA, and protease inhibitors), and the cell suspension was sonicated and centrifuged at 500×g at 4° C. for 5 min. The supernatant was used as the enzyme source for N-SMase. The reaction mixture contained enzyme preparation in buffer A containing 5 nmol of [^14C] sphingomyelin, 5 nmol of phosphatidylserine, 5 mM dithiothreitol, and 5 mM MgC¾ in a final volume of 100 μl. Similarly, the fraction for A-SMase was resuspended in buffer B (100 mM sodium acetate, pH 5.0, 0.1% Triton X-100, and protease inhibitors). The cell suspension was sonicated and centrifuged. The supernatant was used as the source of A-SMase. The activity of A-SMase was measured in a 100-μl reaction mixture consisting of the enzyme preparation in buffer B and 5 nmol of [^14C] sphingomyelin. The enzyme reaction was initiated by the addition of 50 μl of substrate and stopped by the addition of 1.5 ml of chloroform:methanol (2:1, v/v) and 0.2 ml of water. After vortexing and phase separation, the aqueous phase was removed for counting.\nIn FIGS. 3A-3E, primary human astrocytes seeded in inserts were stimulated by the combination of Aβ and IL-Iβ as described above. After 24 h, media were removed and inserts were washed and placed on neurons that were pretreated with PTIO for 30 min. In FIG. 3A, after 1 h, activity of N-SMase was measured in total cell extracts of neurons as described above. After 18 h, neuronal viability was examined by the metabolism of MTT (FIG. 3B) and the release of LDH (FIG. 3C). Values obtained from the control group served as 100%, and data obtained in other groups were calculated as percent of control accordingly. Results are mean+S.D. of three different experiments. ^ap<0.001 vs control; ^bp<0.001 vs activated astrocytes. Primary human neurons were treated with 25 μM DETA-NONOate (a NO donor) and at different time points of treatment, activities of N-SMase (FIG. 3D) and A-SMase (FIG. 3E) were monitored. ^ap<0.001 vs control (0 h)."}, "NF-κB": {"test_system": "NF-κB", "assay": "EMSA of NF-κB DNA-binding activity in primary human astroglia", "format": "cell-based", "details": "chemical inhibitor, different concentrations, 30 min preincubation; 1 h of stimulation"}, "primary human astroglia": {"test_system": "primary human astroglia", "assay": "NO synthesis (nitrite, Griess reagent) in primary human astroglia", "format": "cell-based", "protocol": "Synthesis of NO was determined by assay of culture supernatants for nitrite, a stable reaction product of NO with molecular oxygen, using Griess reagent as described.\nAfter 24 h of stimulation, the concentration of nitrite was measured in supernatants (FIG. 4A) by Griess reagent. […] Cells were treated with ASO/ScO for 40 h followed by stimulation with the combination of fibrillar Aβ and IL-Iβ as above. After 6 h, the expression of iNOS mRNA was analyzed by both semi-quantitative RT-PCR (C) and quantitative real-time PCR (FIG. 4D). The expression of TNF-a, IL-6 and IL-Iβ mRNAs were analyzed by semi-quantitative RT-PCR (FIG. 4E). Results are mean±SD of three different experiments. ^ap<0.001 vs control; ^bp<0.001 vs (Aβ+IL-Iβ)."}, "iNOS, GFAP and CD11b": {"test_system": "iNOS, GFAP and CD11b", "assay": "Immunofluorescence of iNOS, GFAP and CD11b in the cortex of Aβ-microinjected mice", "format": "in vivo, C57/BL6 mice", "details": "cortex, 6 h (and 24 h) of microinjection", "protocol": "[…], mice were perfused with 4% paraformaldehyde and their brains were processed for immunohistochemical studies. For double labeling of GFAP with iNOS, sections (6 μm) were incubated with polyclonal anti-GFAP (GFAP: 1000 dilution; Calbiochem) and anti-iNOS (iNOS: 1000 dilution; Calbiochem) for 24 h at 4° C. After three washes in PBST (15 min each), slides were further incubated with Cy5 and Cy2 (Jackson ImmunoResearch Laboratories, Inc.) secondary antibodies for 2 h at room temperature. For negative controls, a set of tissue sections was incubated under similar conditions without the primary antibodies. The samples were mounted and observed under a Bio-Rad MRC1024ES confocal laser scanning microscope.\nAfter 6 h of Aβ microinjection, mice were perfused and double immunofluorescence for GFAP (green) and iNOS (red) (FIG. 8A) and CD 11b (green) and iNOS (red) (FIG. 8B) was performed."}, "N-SMase [2]": {"test_system": "N-SMase", "assay": "N-SMase activity in vivo in the cortex after microinjection", "set-up": "species or system C57/BL6 mice", "protocol": "as §1\n(§2) Control mice received saline injection. At indicated time points, cortex was dissected out and divided into two halves—one half for measuring activities of N-SMase (FIG. 7B) and A-SMase (FIG. 7C) and the other for assaying ceramide (FIG. 7D). Control (saline—6 h) group served as 100%, and data from other groups were expressed as percentage of control. Results are mean+SD of five different mice (n=5). ^ap<0.05 vs saline—6 h."}, "primary human astrocytes": {"test_system": "primary human astrocytes", "assay": "GFAP and iNOS double-labeling of primary human astrocytes stimulated with Aβ peptides", "format": "cell-based", "details": "peptide stimulation for 24 h", "protocol": "In FIG. 5A, primary astrocytes were stimulated with fibrillar Aβ1-42, oligomeric Aβ1-42 and reverse peptide Aβ42-1 for 24 h followed by double-labeling of GFAP and iNOS. In FIG. 5B, primary human astrocytes seeded in inserts were stimulated with a combination of I μM of oligomeric Aβ1-42 and 10 ng/ml of IL-Iβ in serum free media. […] After 6 h, neuronal apoptosis was monitored by TUNEL. In FIG. 5C, TUNEL-positive cells were counted manually in four different images of each of three coverslips by three individuals blinded to the experiment. Values obtained from the control group (1) served as 100%, and data obtained from other three groups i.e. the oligomeric Aβ-activated astrocytes (OAA) group (2), the ASO-OAA group (3), and the ScO-OAA group (4) was calculated as percent of control accordingly. Results are mean+S.D. of three different experiments. ^ap<0.001 vs control; ^bp<0.001 vs OAA."}, "ceramide": {"test_system": "ceramide", "assay": "Ceramide level in vivo in the cortex (DAG kinase assay)", "set-up": "species or system C57/BL6 mice", "protocol": "After treatment, lipids were extracted from cells as described previously. Ceramide content was quantified using diacylglycerol (DAG) kinase and [γ-^32P] ATP as described earlier. Briefly, dried lipids were solubilized in 20 μl of an octyl β-D-glucoside/cardiolipin solution (7.5% octyl β-D-glucoside, 5 mM cardiolipin in 1 mM diethylenetriaminepentaacetic acid) by sonication in a sonicatorbath. The reaction was then carried out in a final volume of 100 μl containing the 20-μl sample solution, 50 mM imidazole HQ, pH 6.6, 50 mM NaCl, 12.5 mM MgCl2, 1 mM EGTA, 2 mM dithiothreitol, 6.6 μg of DAG kinase, and 1 mM [γ-^32P] ATP (specific activity of 1-5×10^5 cpm/nmol) for 30 min at room temperature. The labeled ceramide-1-phosphate was resolved with a solvent system consisting of methyl acetate:n-propyl alcohol:chloroform:methanol:0.25% KQ in water:acetic acid (100:100:100:40:36:2). […] Quantification of ceramide-1-phosphate was carried out by autoradiography and densitometry scanning using a Fluor Chem 8800 imaging system (Alpha Innotech Corporation). Values are expressed either as arbitrary units (absorbance) or as percent of control, considering control as 100%. […]\nControl mice received saline injection. […] Control (saline—6 h) group served as 100%, and data from other groups were expressed as percentage of control. […]"}, "[3]": {"test_system": "neurons (NeuN-positive cells)", "assay": "TUNEL/NeuN neuronal apoptosis in vivo in the cortex of Aβ-microinjected mice"}, "A-SMase": {"test_system": "A-SMase", "assay": "A-SMase activity in vivo in the cortex after microinjection", "set-up": "species or system C57/BL6 mice", "protocol": "as §1, §2"}}}
{"compound": "O=C(/C=C/c1ccc(/C=C/C(=O)Nc2ccc(C3=NCCN3)cc2)cc1)Nc1ccc(C2=NCCN2)cc1", "note": "[GW4869]", "values": [{"measurement": "activity of N-SMase", "setting": "N-SMase [1]", "result": "strongly suppressed"}, {"measurement": "(Aβ+IL-1β)-induced DNA-binding activity of NF-κB", "setting": "NF-κB", "result": "markedly suppressed"}, {"measurement": "(Aβ+IL-1β)-induced production of NO", "setting": "primary human astroglia; astroglia preincubated 30 min with different concentrations of chemical inhibitor, nitrite after 24 h", "result": "markedly suppressed"}]}
{"compound": "fibrillar Aβ1-42: human Aβ peptide (1-42), Bachem, incubated at 50 μM at 37° C. for 5 days", "values": [{"measurement": "glial expression of iNOS (GFAP-positive astrocytes, CD11b-positive microglia) and GFAP after Aβ microinjection", "setting": "iNOS, GFAP and CD11b", "result": "induced"}, {"measurement": "glial expression of iNOS (GFAP-positive astrocytes, CD11b-positive microglia) and GFAP after Aβ microinjection", "setting": "iNOS, GFAP and CD11b; listed as Aβ", "result": "marked increase"}, {"measurement": "activation of N-SMase in the cortex compared to saline microinjection", "setting": "N-SMase [2]; 1 μg peptide, over the time course", "result": "marked increase"}, {"measurement": "increase in the activity of N-SMase in the cortex", "setting": "N-SMase [2]; 6 h of microinjection, 1 μg peptide", "result": "More than 3 fold"}, {"measurement": "activity of N-SMase in the cortex, in words", "setting": "N-SMase [2]; 12 h of microinjection", "result": "increased further"}, {"measurement": "increase in the activity of N-SMase in the cortex compared to saline", "setting": "N-SMase [2]; 12 h of microinjection, 1 μg peptide", "result": "more than 300%"}, {"measurement": "activity of N-SMase in the cortex, in words", "setting": "N-SMase [2]; 24 h of microinjection", "result": "decreased"}, {"measurement": "increase in the activity of N-SMase in vivo in the cortex compared to saline", "setting": "N-SMase [2]; antisense experiment, Aβ alone", "result": "more than 4 fold"}, {"measurement": "astroglial iNOS protein and GFAP", "setting": "primary human astrocytes", "result": "induced the expression of iNOS protein and increased the level of GFAP"}, {"measurement": "increase in the ceramide level in the cortex", "setting": "ceramide; after 6 h", "result": "about 3 fold"}, {"measurement": "increase in the ceramide level in the cortex", "setting": "ceramide; after 12 h", "result": "about 4 fold"}, {"measurement": "apoptotic death of neurons in vivo in the cortex after Aβ microinjection", "setting": "[3]; 24 h after microinjection", "result": "markedly induced"}, {"measurement": "apoptosis in neurons (NeuN-positive cells) after Aβ microinjection", "setting": "[3]; within 6 h of microinjection", "result": "unable to induce any apoptosis"}, {"measurement": "production of NO by the stimulus alone", "setting": "primary human astroglia; primary human astroglia, level comparable to IL-1β", "result": "capable of inducing"}, {"measurement": "activity of A-SMase in the cortex", "setting": "A-SMase; 1 μg peptide microinjected, same setting as N-SMase", "result": "unable to increase"}, {"measurement": "increase in the activity of A-SMase after Aβ microinjection", "setting": "A-SMase; antisense experiment, Aβ alone", "result": "about 35%"}]}
